Experimental data published in patent US9944687B2, “Compounds and their effects on feeding behaviour” (Imperial Innovations Limited, priority 2011, dated 2018).
Where no end group is shown, it is not given here.

Test: pair feeding in rats (food intake and body weight)
Assay type: in vivo, Male Wistar rats
Details: for body weight gain versus corresponding pair-fed (PF) group: 10 days; for body weight gain versus corresponding pair-fed (PF) group / overall body weight change by the end of the 10 day test period versus saline control: FIG. 12b; for total food intake over 10 days / overall body weight change by the end of the 10 day test period versus saline control: daily injection, exendin-4 30, 285 100, 373 50, 398 200 nmol/kg; for total food intake over 10 days: FIG. 12a
Text: Pair feeding is a technique used to separate the weight loss observed in a cohort of animals which has been caused by appetite suppression from the weight loss caused by the induction of metabolic changes. Pair-feeding studies require daily measurement of body weight (BW) and food intake (FI). In pair-feeding studies, rats were divided into three weight-matched groups. Group 1 (the “saline” group) were given a daily injection of saline and allowed access to ad libitum food. Group 2 (identified by the code of the compound administered) were given daily injection of a selected compound of the invention and allowed access to ad libitum food.

Row | Substance | body weight compared to the saline control (100 nmol/kg daily) | body weight reduction versus pair-fed (G237 PF) group (100 nmol/kg daily) | body weight gain versus corresponding pair-fed (PF) group | total food intake over 10 days | overall body weight change by the end of the 10 day test period versus saline control
1 | HSQGTFTSDYSKYLDSQAVHLFIQWLLNGGPSSGAPPPS [compound 237] | reduction in body weight compared to the saline control | not solely mediated by a reduction in food intake |  |  | 
2 | His Ser Gln Gly Thr Phe Thr Ser Asp Tyr Ser His Tyr Leu Asp Ser Lys Ala Val His Leu Phe Ile Gln Trp Leu Leu Asn Gly-NH2 (HSQGTFTSDYSHYLDSKAVHLFIQWLLNG-NH2) [compound 285] |  |  | lower weight gains than the corresponding paired feeding groups | less overall food intake | lower body weight gain than the saline control group
3 | His Ser Gln Gly Thr Phe Thr Ser Asp Tyr Ser Lys Tyr Leu Asp Ser Gln Ala Val Arg Leu Phe Ile Glu Trp Leu Leu Asn Gly-NH2 (HSQGTFTSDYSKYLDSQAVRLFIEWLLNG-NH2) [compound 398] |  |  | lower weight gains than the corresponding paired feeding groups | less overall food intake | lower body weight gain than the saline control group
4 | His Ser Gln Gly Thr Phe Thr Ser Asp Tyr Ser Lys Tyr Leu Glu Ser Gln Ala Val His Leu Phe Ile Glu Trp Leu Lys Asn Gly-NH2 (HSQGTFTSDYSKYLESQAVHLFIEWLKNG-NH2) [compound 373] |  |  | lower weight gains than the corresponding paired feeding groups | less overall food intake | lower body weight gain than the saline control group
